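Five concentrations, 48 hours, 96-well plates. The concentration for full growth arrest is given as TGI.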
Legend:
Assay in all cases: inhibition of tumour cell growth, NCI panel, 48 h
MDA-N = tested on: MDA-N
HCT-15 colon = tested on: HCT-15 colon
NCI-H23 lung = tested on: NCI-H23 lung
HL-60(TB) leukemia = tested on: HL-60(TB) leukemia
HT29 colon = tested on: HT29 colon
OVCAR-8 ovarian = tested on: OVCAR-8 ovarian
BT-549 breast = tested on: BT-549 breast
MDA-MB-435 = tested on: MDA-MB-435
MALME-3M melanoma = tested on: MALME-3M melanoma
NCI-H522 lung = tested on: NCI-H522 lung
KM12 colon = tested on: KM12 colon
PC-3 prostate = tested on: PC-3 prostate
TK-10 renal = tested on: TK-10 renal
ACHN renal = tested on: ACHN renal
HOP-92 NSCLC = tested on: HOP-92 NSCLC
SW-620 colon = tested on: SW-620 colon
K-562 leukemia = tested on: K-562 leukemia
UACC-257 melanoma = tested on: UACC-257 melanoma
SK-OV-3 ovarian = tested on: SK-OV-3 ovarian
SF-295 CNS = tested on: SF-295 CNS
786-0 renal = tested on: 786-0 renal
UO-31 renal = tested on: UO-31 renal
UACC-62 melanoma = tested on: UACC-62 melanoma
SK-MEL-28 melanoma = tested on: SK-MEL-28 melanoma
SK-MEL-5 melanoma = tested on: SK-MEL-5 melanoma
HCC-2998 colon = tested on: HCC-2998 colon
NCI/ADR-RES ovarian = tested on: NCI/ADR-RES ovarian
RXF 393 renal = tested on: RXF 393 renal
SK-MEL-2 melanoma = tested on: SK-MEL-2 melanoma
CAKI-1 renal = tested on: CAKI-1 renal
U251 CNS = tested on: U251 CNS
OVCAR-3 ovarian = tested on: OVCAR-3 ovarian
SF-539 CNS = tested on: SF-539 CNS
HS 578T breast = tested on: HS 578T breast
MCF7 breast = tested on: MCF7 breast
T-47D breast = tested on: T-47D breast
CCRF-CEM leukemia = tested on: CCRF-CEM leukemia
RPMI-8226 leukemia = tested on: RPMI-8226 leukemia
OVCAR-4 ovarian = tested on: OVCAR-4 ovarian
MDA-MB-231 breast = tested on: MDA-MB-231 breast
COLO 205 colon = tested on: COLO 205 colon
DU-145 prostate = tested on: DU-145 prostate
MOLT-4 leukemia = tested on: MOLT-4 leukemia
SNB-75 CNS = tested on: SNB-75 CNS
IGROV1 ovarian = tested on: IGROV1 ovarian
NCI-H460 lung = tested on: NCI-H460 lung
NCI-H226 lung = tested on: NCI-H226 lung
SF-268 CNS = tested on: SF-268 CNS
LOX IMVI melanoma = tested on: LOX IMVI melanoma
M14 melanoma = tested on: M14 melanoma
EKVX NSCLC = tested on: EKVX NSCLC
HOP-62 NSCLC = tested on: HOP-62 NSCLC
A498 renal = tested on: A498 renal
HCT-116 colon = tested on: HCT-116 colon
A549 NSCLC = tested on: A549 NSCLC
OVCAR-5 ovarian = tested on: OVCAR-5 ovarian
SNB-19 CNS = tested on: SNB-19 CNS
SR leukemia = tested on: SR leukemia
SN12C renal = tested on: SN12C renal

Measured: TGI

CCOC(=O)c1cn(CC)c2ccc3ccsc3c2c1=O
not listed: SR leukemia | SN12C renal
> 100 µM: all other assays above

CSC1=C(C#N)C(=O)N(c2ccc(C)cc2)C(=O)C1C#N (configuration not stated)
82 µM: HOP-92 NSCLC
not listed: OVCAR-8 ovarian | NCI/ADR-RES ovarian | SNB-75 CNS
> 100 µM: all other assays above

CCOC(=O)Nc1n[nH]nc1Cl
not listed: HL-60(TB) leukemia | ACHN renal | HOP-92 NSCLC | SF-295 CNS | CCRF-CEM leukemia | SNB-19 CNS | SR leukemia
> 100 µM: all other assays above

CCc1ccc(Nc2cc(=O)n(C)c(SCc3ccccc3)n2)cc1
57.1 µM: HCT-116 colon
42.8 µM: SN12C renal
34.4 µM: 786-0 renal
60.4 µM: HT29 colon
45.2 µM: COLO 205 colon
29.7 µM: A498 renal
not listed: PC-3 prostate | SK-MEL-28 melanoma | HCC-2998 colon | U251 CNS | RPMI-8226 leukemia | OVCAR-4 ovarian | NCI-H460 lung
> 100 µM: all other assays above

From PubChem BioAssay (NCI)
